From patent US20100055065A1, “AGENT FOR INHIBITING PRODUCTION OF HEPATITIS C VIRUS AND ITS USE” (MIYAZAKI PREFECTURAL INDUSTRIAL SUPPORT FOUNDATION, priority 2008, published 2010)
In brackets after ≈: the same amount, converted by molar mass.

Experiments:
[1] = target: HCV replicon; test: HCV replication suppressive activity test (replicon assay, luciferase); type: cell-based, Hepatitis C virus; details: for HCV replication suppressive (inhibitory) activity, in words: replicon cell assay
Description: The HCV-replicon cell line was established by transducing sub-genomic RNA into human hepatoma Huh-7 cell cytoplasm. The sub-genomic RNA was prepared by replacing the translated region of HCV genome RNA structural proteins with firefly luciferase gene, internal ribosome entry site (IRES) of the encephalomyocarditis virus and neomycin phosphotransferase gene. The cell line obtained was used for assessment of production of HCV replicon RNA. The production quantity of HCV replicon RNA was measured by the luciferase assay method. (Lohmann et al., Science 285, (1999) 110; Sakamoto et al. Nat. Chem. Biol. 1, (2005) 333)
In order to determine replication quantity of HCV-RNA, luciferase genes from firefly were transduced into HCV-RNA as a reporter gene. The gene transduction was carried out according to the method of Krieger et al. (See; Krieger et al. J. virol. 75, (2001) 4614) in such manner that luciferase genes were fused together neomycin-resistant genes beneath the IRES of HCV gene.
With this HCV subgenome, the replication efficiency of HCV could be estimated by measuring luciferase activity in the HCV replicon cells. The HCV replicon cells used were routinely grown in DMEM (Gibco cat. No. 10569-010) supplemented with Glutamax (Invitrogen), 10% fetal bovine serum (FBS), 1% penicillin/streptomycin (Invitrogen) and 500 μg/ml G418 (Invitrogen). The cells were maintained at 37° C. in humidified atmosphere containing 5% CO2. For the HCV replication assay, the replicon cells in DMEM supplemented with Glutamax and 5% FBS were seeded in a 96-well plate so as to fill every well with 5000 cells, and incubated for 24 hours.
The test was carried out in such a way that the HCV replicon cells were cultured for 72 hours after adding test samples in different concentrations. The Quantity of the luciferase activity was determined by the Steady-Glo Luciferase Assay System (Promega) according to the manufacture's instructions and the luminescence was measured by DTX 800 Multimode Detector (Beckman). In this test, the replication inhibitory activity is expressed as a concentration of samples required for inhibiting 50 percents of the replication of HCV replicon cell (IC50). Specific activity is a reciprocal number of IC50 (1/IC50). Total activity is calculated by multiplying the yield weight of the HCV replicon cell by specific activity.

[2] = test system: HCV replicon cells (human hepatoma Huh-7); test: Cytotoxicity test (Cell Counting Kit-8); type: cell-based; details: Table 1
Description: (§1) The cytotoxicity of the samples was measured by Cell Counting Kit-8 (CCK-8; Dojindo Molecular Technologies) according to the manufacture's instructions. Briefly, 10 μl/a well of CCK-8 reagent were added to the HCV replicon cells cultured in a 96-well plate and then incubated at 37° C. for 60 min. The absorbance of each well was measured at 450 nm with a reference wavelength at 650 nm using an Emax Precision microplate reader (Molecular Devices Inc.). Cell viability was calculated as relative index of control cells and effects of samples and was expressed as the concentration of samples required for 50% cytotoxicity of the cells (CC50).

[3] = Cytotoxicity test (Cell Counting Kit-8); type: cell-based, human; details: human; HCV replicon cells; Table 1
Description: as §1

[4] = HCV replicon cells, 72 hours, Table 1

| Compound | Replication suppressive activity IC50 [1, 4] | HCV replication suppressive (inhibitory) activity, in words [1] | Cytotoxicity CC50 [2] | Ratio CC50/IC50 ([1]; Table 1) | IC50 ([1]; Hepatitis C virus, HCV replicon cells, 72 hours, Table 1) | CC50 [3] |
| --- | --- | --- | --- | --- | --- | --- |
| Oc1cc(O)c2c(c1)O[C@H](c1ccc(O)c(O)c1)[C@H](O)[C@H]2c1c(O)cc(O)c2c1O[C@H](c1ccc(O)c(O)c1)[C@H](O)C2 [Procyanidin B2] | >25.0 µg/mL | no anti-HCV production activity | >25.0 µg/mL |  |  |  |
| O=C(/C=C/c1ccc(O)c(O)c1)O[C@@H]1C[C@](O)(C(=O)O)C[C@@H](O)[C@H]1O [chlorogenic acid] |  | seem not to have the inhibition activity |  |  |  |  |
| Catechin | 16.18 µg/mL | no anti-HCV production activity |  | 6.2 |  |  |
| Oc1cc(O)c2c(c1)O[C@H](c1ccc(O)c(O)c1)[C@H](O)C2 [Epicatechin] |  |  |  | 4.2 | 27.3 µg/mL (≈ 94.1 µM) | 114 µg/mL (≈ 392 µM) |
